The test system of one test is rat hippocampal slices. Nature of the test: spontaneous epileptiform burst discharges across a spectrum of in vitro models in hippocampal slices (Example 69). Particulars: for spontaneous burst discharges, CA3 and CA1: high-K+ (10 mM) medium. It is filed as cell-based. As to the method:
Sprague-Dawley rats (males and females; 25-35 days old) were decapitated, the top of the skull was rapidly removed, and the brain chilled with ice-cold oxygenated slicing medium. […] A hemisphere of brain containing hippocampus was blocked and glued (cyanoacrylic adhesive) to the stage of a Vibroslicer (Frederick Haer, Brunsick, Me.). […] In the recording chamber, the slices were perfused with oxygenated recording medium at 34-35° C. All animal procedures were conducted in accordance with NIH and University of Washington animal care guidelines.
In most slice experiments, simultaneous extracellular field electrode recordings were obtained from CA1 and CA3 areas. A bipolar tungsten stimulating electrode was placed on the Schaffer collaterals to evoke synaptically-driven field responses in CA1. Stimuli consisted of 100-300 μsec duration pulses at an intensity of four times the population-spike threshold. After discharges were evoked by a 2 second train of such stimuli delivered at 60 Hz.

The test system of test [1] is rats. Particulars: Granados-Soto et al. Pain 2005; cited from earlier work.
Test [2] has as its system rats. Nature of the test: fear potentiated startle (FPS) test in rats. It is filed as in vivo, rat. As to the method: Twenty-four rats received a 30 min period of habituation to the FPS apparatus. Twenty-four hours later, baseline startle amplitudes were collected. The rats were then divided into three matched groups based on baseline startle amplitudes. […] Groups 1 and 2 therefore consisted of 8 rats each, with Group 3 consisting of […]. Following baseline startle amplitude collection, 20 light/shock pairings were delivered on two sessions over two consecutive days (i.e., 10 light/shock pairings per day). […] Immediately following injections, startle amplitudes were assessed during startle alone trials and startle plus fear (light followed by startle) trials. Fear potentiated startle (light+startle amplitudes minus startle alone amplitudes) was compared between the treatment groups.
Animals were trained and tested in four identical stabilimeter devices (Med-Associates). Briefly, each rat was placed in a small Plexiglas cylinder. The floor of each stabilimeter consisted of four 6-mm-diameter stainless steel bars spaced 18 mm apart through which shock can be delivered. Cylinder movements result in displacement of an accelerometer where the resultant voltage is proportional to the velocity of the cage displacement. Startle amplitude is defined as the maximum accelerometer voltage that occurs during the first 0.25 sec after the startle stimulus is delivered. […] Each stabilimeter was enclosed in a ventilated, light-, and sound-attenuating box. All sound level measurements were made with a Precision Sound Level Meter. The noise of a ventilating fan attached to a sidewall of each wooden box produced an overall background noise level of 64 dB. The startle stimulus was a 50 ms burst of white noise (5 ms rise-decay time) generated by a white noise generator. The visual conditioned stimulus employed was illumination of a light bulb adjacent to the white noise source. The unconditioned stimulus was a 0.6 mA foot shock with duration of 0.5 sec, generated by four constant-current shockers located outside the chamber. The presentation and sequencing of all stimuli were under the control of the microcomputer.
FPS procedures consisted of 5 days of testing; during days 1 and 2 baseline startle responses were collected, days 3 and 4 light/shock pairings were delivered, day 5 testing for fear potentiated startle was conducted.
Matching: On the first two days all rats were placed in the Plexiglas cylinders and 3 min later presented with 30 startle stimuli at a 30 sec interstimulus interval.
Training: On the following 2 days, rats were placed in the Plexiglas cylinders. […] The shock was delivered during the last 0.5 sec of the 3.7 sec CSs at an average intertrial interval of 4 min (range, 3-5 min).
These initial startle stimuli were used to again habituate the rats to the acoustic startle stimuli. Thirty seconds after the last of these stimuli, each animal received 60 startle stimuli with half of the stimuli presented alone (startle alone trials) and the other half presented 3.2 sec after the onset of the 3.7 sec CS (CS-startle trials). All startle stimuli are presented at a mean 30 sec interstimulus interval, randomly varying between 20 and 40 sec.
Measures: The treatment groups were compared on the difference in startle amplitude between CS-startle and startle-alone trials (fear potentiation).
The therapeutic efficacy of several bumetanide analogs in alleviating anxiety was examined using the fear potentiated startle (FPS) test in rats as described above.

For test [3] the following is noted: co-treatment with an NMDA receptor antagonist, non-NMDA receptor and Ca2+ channel antagonists together with furosemide; Collins et al. 1998; cited from earlier work.
Another test concerns human skin. Particulars: Willis et al.; cited from earlier work.
The test system of test [4] is hippocampal slices, areas CA1 and CA3. As to the method: Hippocampal slices were prepared from Sprague-Dawley adult rats as described previously. Transverse hippocampal slices 100 μm thick were cut with a vibrating cutter. Slices typically contained the entire hippocampus and subiculum. After cutting, slices were stored in an oxygenated holding chamber at room temperature for at least one hour before recording.
Sharp-electrodes for intracellular recordings from CA1 and CA3 pyramidal cells were filled with 4 M potassium acetate. Field recordings from the CA1 and CA3 cell body layers were acquired with low-resistance glass electrodes filled with 2 M NaCl. For stimulation of the Schaffer collateral or hilar pathways, a small monopolar tungsten electrode was placed on the surface of the slice. Spontaneous and stimulation-evoked activities from field and intracellular recordings were digitized (Neurocorder, Neurodata Instruments, New York, N.Y.) and stored on videotape. AxoScope software (Axon Instruments) on a personal computer was used for off-line analysis of data.
In some experiments, normal or low-chloride medium was used containing bicuculline.
After placement in the interface chamber, slices were superfused at approximately 1 ml/min. At this flow-rate, it took 8-10 minutes for changes in the perfusion media to be completed. All of the times reported here have taken this delay into account and have an error of approximately ±2 minutes.
Single electrical stimuli were delivered to the Schaffer collaterals, midway between areas CA1 and CA3, every 30 seconds so that the field responses in areas CA1 and CA3 could be monitored throughout the duration of each experiment.

Data on one compound can be found in patent US8008283B2, “Methods and compositions for the treatment of neuropsychiatric disorders” (Neurotherapeutics Pharma, Inc., priority 2005, dated 2011).

SMILES strings stand for the structures.

On to `NS(=O)(=O)c1cc(C(=O)O)c(NCc2ccco2)cc1Cl` [furosemide], for which the “latency of block of bursting” value lay within 15 to 20 min in the test on rat hippocampal slices (0-Ca++ experiments, 5 mM furosemide) and 20 to 60 min in the test on rat hippocampal slices (all other protocols, 2.5 mM furosemide). Further, the spontaneous burst discharges result in the test on rat hippocampal slices (200-300 μM 4-aminopyridine) is reported as “blocked”; with rat hippocampal slices (bicuculline at 50-100 μM) it was “blocked”; in the test with rat hippocampal slices (removal of calcium plus extracellular chelation (0-Ca++)) it was “blocked”; in the test with rat hippocampal slices (removal of magnesium (0-Mg++), 1 hours perfusion), “blocked”. Also, in the test with rat hippocampal slices (3 hours of perfusion with 0-Mg++ medium, one hour after addition of furosemide), the “anticonvulsant resistant bursts, entorhinal cortex” value is given as “blocked”. Further, the “spontaneous bursting activity in both CA1 and CA3” value in the test on rat hippocampal slices (all experiments) is listed as “reversibly blocked”. Also, the “spontaneous burst discharges, CA3 and CA1” value with rat hippocampal slices (2.5 mM furosemide, after 15 minutes of perfusion) is reported as “increased in magnitude”; in the test on rat hippocampal slices (2.5 mM furosemide, after 45 minutes of perfusion), “blocked in a reversible manner”. In the test on rats [1], the formalin-induced nociception result is given as “reduced”. Moreover, in the test on rats [2] (compared with vehicle alone, FIG. 10), the “difference score one week after treatment” value is listed as “higher difference score”. Besides, the “statistical difference from vehicle in difference score one week after treatment” value in the test on rats [2] (error bars large for vehicle-treated animals) is on record as “possibly a small difference”. Also, in the test with rats [2] (i.v. in DMSO, furosemide 100 mg/kg, bumetanide 70 mg/kg, compared with vehicle alone, FIG. 8), the “difference score (startle alone - fear potentiated startle) on the test day” value is on record as “statistically significantly lower difference score”. The “reduction of alcohol-dependent cerebrocortical damage” value in test [3] is 75-85%. Besides, in the test on human skin, the “sensory nerve activation, itch and flare responses induced by histamine” value was “inhibit sensory nerve activation to reduce the itch and flare responses”. Also, in test [4] (2.5 mM furosemide), the “order of cessation of spontaneous bursting in CA1 and CA3” value is listed as “ceased in area CA1 before the bursting ceased in area CA3”. Moreover, the “time CA3 continued to discharge after CA1 became silent” value in test [4] (2.5 mM furosemide or low-chloride medium) lay in the range of 5 to 10 min. Further, in test [4] (throughout all stages of the experiments), the “field responses to stimulation of the Schaffer collaterals” value was “evoked hyperexcited field responses in both the CA1 and CA3 cell body layers”.
